Laboratory results taken from patent publication US20140031217A1, “HERBICIDAL COMPOSITIONS COMPRISING 4-AMINO-3-CHLORO-5-FLUORO-6-(4-CHLORO-2-FLUORO-3-METHOXYPHENYL)PYRIDINE-2-CARBOXYLIC ACID OR A DERIVATIVE THEREOF AND AUXIN TRANSPORT INHIBITORS” (DOW AGROSCIENCES LLC, priority 2012, published 2014).

Key:
CYPIR = assay: Postemergence foliar-applied greenhouse weed control, CYPIR; type: in vivo, Cyperus iria L.
Excerpt: (§1) Seeds or nutlets of the desired test plant species were planted in a soil matrix prepared by mixing a loam or sandy loam soil (e.g., 28.6 percent silt, 18.8 percent clay, and 52.6 percent sand, with a pH of about 5.8 and an organic matter content of about 1.8 percent) and calcareous grit in an 80 to 20 ratio. The soil matrix was contained in plastic pots with a volume of 1 quart and a surface area of 83.6 square centimeters (cm^2). When required to ensure good germination and healthy plants, a fungicide treatment and/or other chemical or physical treatment was applied. The plants were grown for 8-22 days in a greenhouse with an approximate 14 h photoperiod which was maintained at about 29° C. during the day and 26° C. during the night. Nutrients (Peters Excel® 15-5-15 5-Ca 2-Mg and iron chelate) were applied in the irrigation solution as needed and water was added on a regular basis. Supplemental lighting was provided with overhead metal halide 1000-Watt lamps as necessary. The plants were employed for testing when they reached the first through fourth true leaf stage.
(§2) Treatments consisted of the acid or esters of 4-amino-3-chloro-5-fluoro-6-(4-chloro-2-fluoro-3-methoxy-phenyl) pyridine-2-carboxylic acid (Compound A), each formulated as an SC (suspension concentrate), and various herbicidal components alone and in combination. Forms of compound A were applied on an acid equivalent basis.
(§3) Other herbicidal components were applied on an active ingredient basis and included auxin transport inhibiting (ATI) herbicides chlorflurenol (technical material), chlorflurenol-methyl (technical material), diflufenzopyr (technical material), diflufenzopyr sodium (technical material), flurenol-methyl (technical material) and naptalam (technical material).
(§4) Treatment requirements were calculated based upon the rates being tested, the concentration of active ingredient or acid equivalent in the formulation, and a 12 mL application volume at a rate of 187 L/ha.
(§5) For treatments comprised of formulated and technical compounds, weighed amounts of the technical materials were placed individually in 25 mL glass vials and dissolved in a volume of 97:3 v/v acetone/DMSO to obtain 12× stock solutions, and measured amounts of the formulated compounds were placed individually in 25 mL glass vials and diluted in a volume of 1.5% (v/v) crop oil concentrate or water to obtain 12× stock solutions. […] Application solutions were prepared by adding an appropriate amount of each stock solution (e.g., 1 mL) and diluted to the appropriate final concentrations with the addition of an appropriate amount of an aqueous mixture of 1.5% (v/v) crop oil concentrate so that the final spray solutions contained 1.25% (v/v) crop oil concentrate. When required, additional water and/or 97:3 v/v acetone/DMSO was added to individual application solutions so that the final acetone and DMSO concentrations of the application solutions being compared were 8.1% and 0.25%, respectively.
(§6) All stock solutions and applications solutions were visually inspected for compound compatibility prior to application. Spray solutions were applied to the plant material with an overhead Mandel track sprayer equipped with an 8002E nozzle calibrated to deliver 187 L/ha over an application area of 0.503 m^2 at a spray height of 18 to 20 inches (46 to 50 cm) above average plant canopy height. Control plants were sprayed in the same manner with the solvent blank.
(§7) The treated plants and control plants were placed in a greenhouse as described above and watered by sub-irrigation to prevent wash-off of the test compounds. After approximately 3 weeks, the condition of the test plants as compared with that of the untreated plants was determined visually and scored on a scale of 0 to 100 percent where 0 corresponds to no injury or growth inhibition and 100 corresponds to complete kill. […]

BRAPP = assay: Postemergence foliar-applied greenhouse weed control, BRAPP; type: in vivo, Brachiaria platyphylla (Griseb.) Nash
Excerpt: as §1, §2, §3, §4, §5, §6, §7

LEFCH = assay: Postemergence foliar-applied greenhouse weed control, LEFCH; type: in vivo, Leptochloa chinensis (L.) Nees
Excerpt: as §1, §2, §3, §4, §5, §6, §7

| Compound | Visual Weed Control (%) Obs (CYPIR; 20 DAA, 4.38 gae/ha) [%] | Visual Weed Control (%) Obs (BRAPP; 21 DAA, 8.75 gae/ha) [%] | Visual Weed Control (%) Obs (LEFCH; 20 DAA, 4.38 gae/ha) [%] | Visual Weed Control (%) Obs (LEFCH; 20 DAA, 8.75 gae/ha) [%] | Visual Weed Control (%) Obs (LEFCH; 20 DAA, 17.5 gae/ha) [%] | Visual Weed Control (%) Obs (LEFCH; 21 DAA, 8.75 gae/ha) [%] | Visual Weed Control (%) Obs (LEFCH; 21 DAA, 17.5 gae/ha) [%] | Visual Weed Control (%) Obs (CYPIR; 22 DAA, 8 gae/ha) [%] | Visual Weed Control (%) Obs (BRAPP; 21 DAA, 4.38 gae/ha) [%] | Visual Weed Control (%) Obs (BRAPP; 21 DAA, 17.5 gae/ha) [%] | Visual Weed Control (%) Obs (BRAPP; 22 DAA, 8 gae/ha) [%] | Visual Weed Control (%) Obs (BRAPP; 22 DAA, 16 gae/ha) [%] | Visual Weed Control (%) Obs (LEFCH; 21 DAA, 4.38 gae/ha) [%] | Visual Weed Control (%) Obs (LEFCH; 22 DAA, 32 gae/ha) [%] |
| --- | --- | --- | --- | --- | --- | --- | --- | --- | --- | --- | --- | --- | --- | --- |
| COc1c(Cl)ccc(-c2nc(C(=O)O)c(Cl)c(N)c2F)c1F [Compound A Acid, 4-amino-3-chloro-6-(4-chloro-2-fluoro-3-methoxyphenyl)-5-fluoropyridine-2-carboxylic acid] | 30 | 60 | 0 | 30 | 30 | 30 | 30 |  |  |  |  |  |  |  |
| COc1c(Cl)ccc(-c2nc(C(=O)OCc3ccccc3)c(Cl)c(N)c2F)c1F [Compound A Benzyl Ester] | 70 | 75 | 15 | 30 |  | 40 | 50 | 30 | 70 | 95 | 35 | 80 | 15 | 40 |
